Reference: article PMC10799042 (Scientific Reports, 2024)

Experiments:
[1] = system: scopolamine-induced memory impairment and learning disability in mice; experiment: Morris water maze, scopolamine-induced memory impairment; type: in vivo, Swiss albino male mice; settings: for escape latency versus scopolamine-treated mice (in words): 2 mg/kg, day 1 to 5; for Escape latency, 1st Day / Escape latency, 2nd Day / Escape latency, 3rd Day / Escape latency, 4th Day / Escape latency, 5th Day: mice, scopolamine 1.5 mg/kg i.p., donepezil and compounds 2 mg/kg p.o. with scopolamine, mean ± SD; for Escape latency, 1st Day: day 1; for Escape latency, 2nd Day: day 2; for Escape latency, 3rd Day: day 3; for Escape latency, 4th Day: day 4; for Escape latency, 5th Day: day 5
Method: Swiss albino male mice weighing 25–30 g were purchased from LLRUVAS in Hisar, Haryana, India. […] The housing, care, and handling of the animals were done per CPCSEA requirements. The animals were exposed to the laboratory setting for seven days before the experiment.
(§1) The animals were properly acclimated before being randomly placed into 12 groups (I-XII), with six animals in each group. […] Following the delivery of the dose to the mouse, the rodent's behaviour was assessed using the traditional Morris water maze (MWM) technique.
Five days of continuous animal evaluations were conducted using the MWM model. […] The tank was placed in a dim laboratory, and using wires anchored at the pool's edge at an angle to one another, it was divided into four equal pieces (P1–P4). A stage in the targeted area (P4) of the pool with an upper face (6 × 6 cm^2) immersed in the water (1.0 cm below the surface). The location of the stage stayed the same throughout the evaluation. The animals were subjected to water pools throughout the evaluation by turning their heads towards the wall from any of the four segments, namely P1-P4, and being given 90 s to recognise the stage placed in a pool. If the animal couldn't get to the stage in 90 s, they were gently guided onto the stage under supervision. On the sixth day, one of the parameters used to determine if cognitive impairments have recovered was the time it took the mice to travel from the initial portion to locate the hidden stage in the intended part (escape latency). […]

[2] = target: T1, Acetylcholinesterase (AChE) (Mus musculus, UniProt P21836); settings: brain THS of mice, scopolamine 1.5 mg/kg i.p.; donepezil and compounds 2 mg/kg p.o.; mean ± SD
T1 sequence (P21836 32-614): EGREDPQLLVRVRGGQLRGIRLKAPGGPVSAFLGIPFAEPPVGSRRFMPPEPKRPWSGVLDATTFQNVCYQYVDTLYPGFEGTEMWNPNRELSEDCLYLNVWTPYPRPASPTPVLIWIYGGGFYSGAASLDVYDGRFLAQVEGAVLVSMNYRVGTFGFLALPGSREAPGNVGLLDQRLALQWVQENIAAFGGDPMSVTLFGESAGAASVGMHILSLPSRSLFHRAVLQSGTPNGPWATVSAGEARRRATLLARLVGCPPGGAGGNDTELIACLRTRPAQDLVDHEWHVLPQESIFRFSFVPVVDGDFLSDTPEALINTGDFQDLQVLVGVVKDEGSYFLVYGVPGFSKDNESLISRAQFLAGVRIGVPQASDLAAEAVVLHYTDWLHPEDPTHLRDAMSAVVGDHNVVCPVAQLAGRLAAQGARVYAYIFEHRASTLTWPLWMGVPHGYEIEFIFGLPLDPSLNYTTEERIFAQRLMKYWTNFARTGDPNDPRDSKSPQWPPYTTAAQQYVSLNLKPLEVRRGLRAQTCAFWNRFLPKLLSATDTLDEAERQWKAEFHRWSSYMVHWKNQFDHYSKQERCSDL
Method: as §1
(§2) After five days of behavioral assessment, the mice's brains were removed and homogenized (blended) in chilled phosphate buffer (pH 7.4) at a concentration of 10% w/v (weight per volume). The homogenates were then centrifuged (spun at high speed) for 20 min at 4 °C to separate the supernatant (liquid) from the pellet (solid material). The supernatant was then collected to measure biological substances.
Employing Ellman et al., methodology, AChE levels were quantified in tissue homogenate supernatant (THS) to evaluate cholinergic abnormalities.

malondialdehyde (MDA) = experiment: Lipid peroxidation (LPO) assay, MDA in brain homogenate; type: in vivo; settings: brain THS of mice, scopolamine 1.5 mg/kg i.p.; donepezil and compounds 2 mg/kg p.o.; mean ± SD
Method: as §1, §2
The amount of malondialdehyde (MDA), a marker of lipid peroxidation (LPO), was measured using a method described by Wills[10]. Tris–HCl buffer and THS were mixed and incubated at 37 °C for 2 h with 10% trichloroacetic acid. After incubation, the mixture was centrifuged again (at 1000 rpm for 10 min). […] After cooling, 1.0 mL of double-distilled water was added, and the absorbance was measured at 532 nm.

nitrite = experiment: Nitrite assay (Greiss reagent) in brain homogenate; type: in vivo; settings: brain THS of mice, scopolamine 1.5 mg/kg i.p.; donepezil and compounds 2 mg/kg p.o.; mean ± SD
Method: as §1, §2
The amount of nitric oxide in THS was calculated using Greiss' reagent, a mixture of chemicals that reacts with nitric oxide to produce a colored product. The absorbance of the colored product was computed at 540 nm and the concentration of nitrite was determined using a standard curve of known nitrite concentrations.

[3] = system: Reduced glutathione (GSH); experiment: Reduced glutathione (GSH) assay in brain homogenate; type: in vivo; settings: brain THS of mice, scopolamine 1.5 mg/kg i.p.; donepezil and compounds 2 mg/kg p.o.; mean ± SD
Method: as §1, §2
The method described by Jollow et al. was used to measure glutathione (GSH) levels. First, 1.0 mL of 4% sulfosalicylic acid was added to 1.0 mL of tissue homogenate to precipitate the GSH. The mixture was then incubated at 4 °C for 1 h and centrifuged at 1200 rpm for 10 min at 4 °C. The supernatant was collected and diluted to a final volume of 3.0 mL with phosphate buffer and Ellman's reagent. […]

[4] = system: Superoxide dismutase (SOD); experiment: Superoxide dismutase (SOD) assay in brain homogenate; type: in vivo; settings: brain THS of mice, scopolamine 1.5 mg/kg i.p.; donepezil and compounds 2 mg/kg p.o.; mean ± SD
Method: as §1, §2
The samples contained EDTA, sodium carbonate, and NBT, and the assay was performed using Kono's method. Each sample tube contained 2.0 mL of this mixture, as well as THS and hydroxylamine. The absorbance of the mixture was measured at 560 nm every 30 or 60 s for 2 min to track changes in absorbance.

Catalase = Catalase assay in brain homogenate; type: in vivo; settings: brain THS of mice, scopolamine 1.5 mg/kg i.p.; donepezil and compounds 2 mg/kg p.o.; mean ± SD
Method: as §1, §2
Employing the methodology of Luck et al., catalase activity was quantified. The sample contained H2O2 (1.0 mL, 0.019 M), phosphate buffer (1.95 mL, 0.05 M, pH 7.0), and THS (0.05 mL). The optical density was computed at a wavelength of 240 nm. The findings were shown as μM H2O2 decomposition/min/mg protein[13].

| Substance | escape latency versus scopolamine-treated mice (in words) [1] | Escape latency, 1st Day [1] [s] | Escape latency, 2nd Day [1] [s] | Escape latency, 3rd Day [1] [s] | Escape latency, 4th Day [1] [s] | Escape latency, 5th Day [1] [s] | μM of AChE/min/mg protein [2] | LPO assay, MDA levels (malondialdehyde (MDA)) | Nitrite assay, nitrite conc. (nitrite) [μM/mg protein] | GSH assay, μmol of GSH/mg Protein [3] | SOD assay, SOD units/mg protein [4] [SOD units/mg protein] | Catalase assay, Catalase activity (Catalase) [min⁻¹] |
| --- | --- | --- | --- | --- | --- | --- | --- | --- | --- | --- | --- | --- |
| 2-(1-benzylpiperidin-4-yl)-4-chloro-6,7-dimethoxyquinoline [Compound 15] | significantly reduced escape latency | 80.5 ± 0.86 | 49.83 ± 0.75 | 29.16 ± 3.07 | 11.5 ± 1.04 | 3.83 ± 1.34 | 0.02 ± 0.02 μM of AChE/min/mg protein | 8.54 ± 0.02 nM/mg of tissue | 14.66 ± 0.04 | 0.09 ± 0.003 μmol of GSH/mg Protein | 3.14 ± 0.03 | 5.35 ± 0.03 |
| 2-((1-benzylpiperidin-4-yl)methyl)-4-chloro-6,7-dimethoxyquinoline [Compound 16] | significantly reduced escape latency | 76 ± 3.3 | 30.8 ± 0.75 | 21 ± 0.81 | 16 ± 1.54 | 5.33 ± 1.24 | 0.01 ± 0.01 μM of AChE/min/mg protein | 8.52 ± 0.05 nM/mg of tissue | 11.74 ± 0.03 | 0.11 ± 0.002 μmol of GSH/mg Protein | 3.07 ± 0.02 | 4.66 ± 0.04 |
